Laboratory results published in ChEMBL document CHEMBL1142849, “Synthesis and in vitro and in vivo antimycobacterial activity of isonicotinoyl hydrazones” (Bioorg Med Chem Lett, 2005).
≈ marks a conversion by molar mass, not a printed value.

How the values were obtained:
[1] = tested on: Mycobacterium tuberculosis; experiment: In vitro minimal inhibitory concentration against Mycobacterium tuberculosis [H37Rv stain]; assay type: functional
[2] = tested on: Mycobacterium tuberculosis; experiment: In vitro inhibitory concentration against Mycobacterium tuberculosis [H37Rv stain]; assay type: functional, organism-based
[3] = tested on: Mycobacterium tuberculosis; experiment: Log CFU in lungs of mice infected with H37Rv stain of Mycobacterium tuberculosis after administration at 25 mg/Kg; assay type: functional, Lung

C/C(=N/NC(=O)c1ccncc1)c1cccc(CN(Cc2ccccc2)Cc2ccccc2)c1O
MIC [1]: 3.36 µM (≈ 1.56 µg/mL) | IC50 [2]: > 13.5 µM

C/C(=N/NC(=O)c1ccncc1)c1cccc(CN2CCN(c3ccc(F)cc3)CC2)c1O
MIC [1]: 0.87 µM (≈ 0.389 µg/mL) | IC50 [2]: > 14 µM

C/C(=N/NC(=O)c1ccncc1)c1cccc(CN2CCCC2)c1O
MIC [1]: 4.61 µM (≈ 1.56 µg/mL) | IC50 [2]: > 18.5 µM

C/C(=N/NC(=O)c1ccncc1)c1cccc(CN(C)C)c1O
MIC [1]: 2.49 µM (≈ 0.778 µg/mL) | IC50 [2]: > 20 µM

NNC(=O)c1ccncc1 [ISONIAZID]
Log CFU [3]: 6.38 | MIC [1]: 2.04 µM (≈ 0.28 µg/mL) | IC50 [2]: > 45.6 µM

CCCCN(CCCC)Cc1cccc(/C(C)=N\NC(=O)c2ccncc2)c1O
MIC [1]: 3.93 µM (≈ 1.56 µg/mL) | IC50 [2]: > 15.8 µM

C/C(=N/NC(=O)c1ccncc1)c1cccc(CN2CCCCC2)c1O
MIC [1]: 4.43 µM (≈ 1.56 µg/mL) | IC50 [2]: > 17.7 µM

CCN(CC)Cc1cccc(/C(C)=N\NC(=O)c2ccncc2)c1O
MIC [1]: 2.29 µM (≈ 0.78 µg/mL) | IC50 [2]: > 18.4 µM

CCn1cc(C(=O)O)c(=O)c2cc(F)c(N3CCN(Cc4cccc(/C(C)=N\NC(=O)c5ccncc5)c4O)C(C)C3)c(F)c21 (centres undefined)
MIC [1]: 1.26 µM (≈ 0.779 µg/mL) | IC50 [2]: > 10.1 µM

C/C(=N/NC(=O)c1ccncc1)c1cccc(CN2CCOCC2)c1O
MIC [1]: 2.2 µM (≈ 0.78 µg/mL) | IC50 [2]: > 17.6 µM

C/C(=N/NC(=O)c1ccncc1)c1cccc(CN(c2ccccc2)c2ccccc2)c1O
MIC [1]: 3.57 µM (≈ 1.56 µg/mL) | IC50 [2]: > 14.3 µM

C/C(=N/NC(=O)c1ccncc1)c1cccc(CN2CCN(C)CC2)c1O
MIC [1]: 8.61 µM (≈ 3.16 µg/mL) | IC50 [2]: > 17.2 µM

C/C(=N/NC(=O)c1ccncc1)c1cccc(CN2CCN(c3cc4c(cc3F)c(=O)c(C(=O)O)cn4C3CC3)CC2)c1O
MIC [1]: 1.3 µM (≈ 0.778 µg/mL) | IC50 [2]: > 10.4 µM

C/C(=N/NC(=O)c1ccncc1)c1cccc(CN2CCN(c3ccccn3)CC2)c1O
MIC [1]: 0.9 µM (≈ 0.387 µg/mL) | IC50 [2]: > 14.5 µM

C/C(=N/NC(=O)c1ccncc1)c1cccc(CN2CCNCC2)c1O
Log CFU [3]: 6.08 | MIC [1]: 0.56 µM (≈ 0.198 µg/mL) | IC50 [2]: > 17.7 µM

C/C(=N/NC(=O)c1ccncc1)c1cccc(CN2CCN(Cc3ccccc3)CC2)c1O
MIC [1]: 0.88 µM (≈ 0.39 µg/mL) | IC50 [2]: > 14.1 µM
